Legend:
[1] = test system: Salmonella enterica serovar Newport SN78; assay: Ozone-plant antimicrobial wash of inoculated iceberg lettuce leaves; type: cell-based; conditions: ozonated wash
Experimental: Bacterial culture: Salmonella enterica serovar Newport SN78 (bovine isolate; provided by Dr. Marilyn Erickson, University of Georgia, Griffin, GA) was used for this experiment. Dual antibiotic resistance (100 μg/ml ampicillin and 25 μg/ml streptomycin, Amresco, Solon, OH) was developed in the strain through incremental antibiotic exposure. […] The frozen stock culture was initially revived through two transfers into brain heart infusion broth (BHIB) (Becton, Dickinson and Co (BD), Sparks, MD) followed by isolation on xylose lysine desoxycholate (XLD) agar (Becton, Dickinson and Co (BD), Sparks, MD) containing 100 μg/ml ampicillin and 25 μg/ml streptomycin.
Inoculum Preparation: For each experiment, a 20 hour overnight culture was prepared by inoculating 100 μl of the culture in 30 ml of tryptic soy broth (TSB) containing 100 μg/ml ampicillin and 25 μg/ml streptomycin and incubating at 37° C. in a desktop orbital shaker at 200 rpm (MaxQ 4450, Thermo Scientific, Dubuque, IA, USA). The cells in the medium were pelleted by centrifugation at 4000 g (Eppendorf Model 5810, Hamburg, Germany) and the supernatant was discarded. […]. The four outer leaves of the iceberg lettuce were removed and discarded. Whole leaf samples (10 g±0.5 g each) were used. The iceberg lettuce samples were inoculated by immersing 10 g portions into the PBS-S. Newport suspension for 2 minutes. After immersion, the excess culture suspension was allowed to drain from the leaf and the leaves were allowed to dry in a biohood for 1 hour to aid in the attachment of S. Newport to the leaf surface.
Antimicrobial wash solution preparation: The test plant-based antimicrobials used in this study consisted of oregano oil made from pure Origanum vulgare (Lhasa Karnak Company, Berkeley, California), its active component carvacrol (98% pure, molecular weight 150.2, CAS no. 499-75-2, Sigma, St. Louis, MO), olive extract (CreAgri, Hayward, CA), and quillaja saponin made from Quillaja saponaria (Sigma Aldrich, St. Louis, MO). […]

[2] = test system: mesophilic and psychrotrophic bacteria; conditions: 3 minutes (Kim et al. 1999); cited from earlier work
total plate counts = conditions: Wang et al. 2004; cited from earlier work

Compound: O=[O+][O-] [ozonized water, ozone]
- reduction in S. Newport population on iceberg lettuce leaves ([1]; 60 min): 1.76±0.27 log CFU/g
- reduction in S. Newport population on iceberg lettuce leaves ([1]; 90 min): 1.67±0.28 log CFU/g
- reduction in S. Newport population on iceberg lettuce leaves ([1]; 120 min): 2.09±0.54 log CFU/g
- decreased counts of mesophilic bacteria on shredded lettuce [2]: 1.4 log CFU/g
- decreased counts of psychrotrophic bacteria on shredded lettuce [2]: 1.8 log CFU/g
- total plate counts on cilantro leaves after treatment (total plate counts): did not decrease total plate counts

From patent US12239134B2, “Plant antimicrobial compositions including an emulsifier and/or ozone and methods of use” (Arizona Board of Regents on Behalf of The University of …, priority 2018, dated 2025)
